Experimental data taken from patent US20070219213A1, “Use of Adrenergic N-Phenylpiperazine Antagonists, Pahrmaceutical Compositions Containning Them, and Methods of Preparing Them” (priority 2004, published 2007).
“Also recorded” adds a separate entry of the source.

Key:
[1] = test system: alpha 1A and alpha 1B adrenoceptors (rabbit aorta, α1A > α1B); assay: Vasoconstriction assay in rabbit aorta induced by phenylephrine; type: cell-based; settings: for pKB (apparent antagonist potency): Schild equation, 3-300 nM
Experimental: Vasoconstriction Assay in Rabbit Aorta Induced by Phenylephrine
Aorta rings withdrawn from young male rabbits (1500-1700 g) were tensionated to 2 g (20 mN) and kept in Krebs solution, containing 10 mM Hepes, for 30 minutes, under continuous aeration. During this period, eventual tension adjustments were performed until stabilization in 2 g, always with renewal of Krebs solution. Then, vasoconstrictions were induced by 60 mM KCl solution, in each ring, to verify the viability of the organ on the day of the experiment. The preparation was submitted to contraction with phenylephrine (5×10^−5 M) and, then the rings were washed to reach the basal line (0% of vasoconstriction). The procedure was repeated until obtainment of a constant curve. Then, a curve, using increasing concentrations of phenylephrine (5×10^−9-5×10^−4 M), was performed for each ring, as a positive control. The segments were washed to reach the basal line (0% of vasoconstriction) and incubated with the test compounds, individually, for 30 minutes. A second phenylephrine curve was performed and the obtained data compared to the first control curve. The results were analyzed by one-way ANOVA software from Microcal Origin 4.1. The aorta rings were used once for each compound.
Determination of the LASSBio 772 Antagonist Potency (pKB) on the Vasoconstriction of Rabbit or Rat Thoracic Aorta.
cr is the ratio between phenylephrine concentrations in the presence and absence of antagonist; and
B is the antagonist's concentration.

H1 receptors = biological target: T1, H1 receptors (Cavia porcellus, UniProt P31389); assay: Cobaio (guinea pig) trachea contraction induced by histamine; type: cell-based; settings: histamine 100 microM, compound 3 nM-30 microM
T1 construct: from tissue; host or cells: guinea pig trachea strips
T1 sequence (P31389 whole entry): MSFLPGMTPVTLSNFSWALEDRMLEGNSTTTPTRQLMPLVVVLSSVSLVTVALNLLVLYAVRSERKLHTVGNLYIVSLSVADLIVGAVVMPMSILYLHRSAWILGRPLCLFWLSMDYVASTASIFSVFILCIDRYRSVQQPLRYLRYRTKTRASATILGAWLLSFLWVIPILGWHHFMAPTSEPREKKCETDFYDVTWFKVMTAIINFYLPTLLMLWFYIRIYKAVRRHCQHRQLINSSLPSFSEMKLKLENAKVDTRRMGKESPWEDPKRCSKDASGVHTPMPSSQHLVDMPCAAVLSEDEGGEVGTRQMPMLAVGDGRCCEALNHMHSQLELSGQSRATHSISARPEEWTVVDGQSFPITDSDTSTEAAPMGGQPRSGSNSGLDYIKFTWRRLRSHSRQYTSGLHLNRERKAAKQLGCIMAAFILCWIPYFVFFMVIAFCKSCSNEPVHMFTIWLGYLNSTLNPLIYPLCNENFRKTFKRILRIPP
Experimental: These strips were adapted in glass containers of 1.0 mL containing nutritious solution and continuous aeration with carbogenic mixture. The containers are maintained in a bath (Ugo Basile 4050) at the constant temperature of 37±0.50° C., mimicking thus physiologic terms in vitro. The trachea strips were connected to isometric force transducers (Ugo Basile 7011-4), submitted to a tension of 1 g and rested for 1 hour, changing the solution in 15 minute intervals, to obtain the balance to this tension.

alpha 1B subtype = biological target: T2, alpha 1B subtype (Rattus norvegicus, UniProt P15823); assay: [3H]prazosin binding assay in rat liver
T2 construct: from tissue; host or cells: rat liver homogenate/membranes
T2 sequence (P15823 1-515): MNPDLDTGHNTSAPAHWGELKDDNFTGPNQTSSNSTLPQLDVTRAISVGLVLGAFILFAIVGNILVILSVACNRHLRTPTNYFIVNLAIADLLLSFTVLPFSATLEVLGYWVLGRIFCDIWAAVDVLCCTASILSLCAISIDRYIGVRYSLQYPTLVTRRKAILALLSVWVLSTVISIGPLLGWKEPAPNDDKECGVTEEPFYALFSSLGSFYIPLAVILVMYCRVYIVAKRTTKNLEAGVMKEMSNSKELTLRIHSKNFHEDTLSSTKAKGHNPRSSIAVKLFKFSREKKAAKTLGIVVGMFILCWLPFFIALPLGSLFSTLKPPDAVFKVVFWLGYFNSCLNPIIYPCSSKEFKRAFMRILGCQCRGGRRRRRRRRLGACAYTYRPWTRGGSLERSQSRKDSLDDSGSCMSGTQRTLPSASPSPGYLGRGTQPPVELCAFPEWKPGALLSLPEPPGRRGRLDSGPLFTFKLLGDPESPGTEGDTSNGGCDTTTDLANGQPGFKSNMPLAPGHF

[2] = biological target: T3, beta 2 adrenergic receptors (Cavia porcellus, UniProt Q8K4Z4); assay: Salbutamol relaxation of cobaio trachea pre-contracted with carbacol; type: cell-based, guinea pig; settings: salbutamol 10^−10-3.3×10^−5 M, strips pre-contracted with carbacol 10 microM, n=4
T3 construct: from tissue; host or cells: guinea pig trachea strips pre-contracted with carbachol
T3 sequence (Q8K4Z4 whole entry): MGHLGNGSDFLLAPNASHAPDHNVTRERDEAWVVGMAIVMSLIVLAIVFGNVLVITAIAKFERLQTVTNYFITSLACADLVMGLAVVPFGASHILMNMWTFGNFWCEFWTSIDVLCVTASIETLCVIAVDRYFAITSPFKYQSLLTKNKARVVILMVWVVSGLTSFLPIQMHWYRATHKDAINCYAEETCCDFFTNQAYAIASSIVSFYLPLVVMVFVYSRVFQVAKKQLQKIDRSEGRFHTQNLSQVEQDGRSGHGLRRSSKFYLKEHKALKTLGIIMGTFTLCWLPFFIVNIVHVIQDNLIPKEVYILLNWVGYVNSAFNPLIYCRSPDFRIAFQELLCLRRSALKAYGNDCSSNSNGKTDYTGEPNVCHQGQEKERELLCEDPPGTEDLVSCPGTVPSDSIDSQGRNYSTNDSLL
Description: Selectivity Assay for Protein G-Coupled, Beta-Adrenergic, Muscarinic Cholinergic and Histaminergic Bioreceptors
Determination of the Inhibitory Potency (IC50) of LASSBio 772 on Vasoconstriction of the Cobaio (Guinea Pig) Trachea
Cobaios albinos from both sexes, weighing between 400 and 600 g were used in this experiment. The animals were sacrificed by cervical displacement and posterior bleed. Then, their tracheas were removed, kept in 5 microM indometacin added Krebs-Henseleit physiologic solution and oxygenated with carbogenic mixture (95% O2 and 5% CO2), proceeding the removal of the connective and adhered adipose tissue. From these tracheas were obtained segments with 4-6 rings, that are sectioned in the opposite side of the smooth musculature, originating strips used in the contractions assay (ARAKIDA et al., J. Pharmacol. Exper. Therap., 287: 633-639, 1998). […]
After the period, the organ is treated with agonists that will induce contractions. […] The tissue viability was evaluated by contraction induction with histamine 100 microM or carbacol 10 microM. […]
In another experiment the compound was evaluated for its capability to inhibit the relaxation produced by salbutamol (10^−10-3.3×10^−5 M), beta 2 adrenergic agonist, in strips of cobaio trachea pre-contracted with carbacol (10 microM).

COc1ccccc1N1CCN(CCc2ccc3c(c2)OCO3)CC1 [LASSBio 772, 1-(2-1,3-Benzodioxol-5-yl-ethyl)-4-(2-methoxy-phenyl)-piperazine]
antagonist activity on vasoconstriction ([1]; 30 microM compound, 5×10^−4 M phenylephrine): significant antagonist activity | Kb ([1]; rabbit aorta, phenylephrine): ~14.1 nM | pKB (apparent antagonist potency) ([1]; rabbit aorta, phenylephrine): 7.85 | pKB (apparent antagonist potency) ([1]; rabbit aorta, phenylephrine, listed as LASSBio-772): around 7.85 | IC50 (H1 receptors): 309 nM | IC50 (alpha 1B subtype): 450 nM | inhibition of the relaxation produced by salbutamol [2]: not able to inhibit significantly the relaxing effect of salbutamol; also recorded: did not present any activity
